Patent publication US20240310365A1, “DEVICE FOR EVALUATING INNER EAR DRUG DELIVERY” (North Carolina State University, priority 2023, published 2024)

Assays:
[1] = test system: porcine RWM; experiment: Ex-vivo porcine RWM device permeability measurement; assay type: in vitro ADME; settings: Dex ~400 μg/ml
[2] = humans; after intratympanic DSP 0.4-1.8 ml of 4 mg/ml; cited from earlier work

## C[C@@H]1C[C@H]2[C@@H]3CCC4=CC(=O)C=C[C@]4(C)[C@@]3(F)[C@@H](O)C[C@]2(C)[C@@]1(O)C(=O)CO [Dex, dexamethasone]
[1]
  time for passage through the porcine RWM: < 0.5 h
[2]
  dexamethasone concentration in perilymph: about 1.4 μg/
